Source: patent publication US6777389B1, “Cosmetic or dermatological use of 7-hydroxylated steroids in combination with elastin derived peptides” (Connective Tissue Imagineering LLC, priority 1998, dated 2004)

What was measured:
[1] = In-vitro oxygen radical assay with luminol and hydrogen peroxide (Example 2); format: biochemical; settings: luminol pre-incubated with compound at 100 μg/ml
Method: The ability of a compound to scavenge free radicals implicates it as an antioxidizing agent that could help to reduce the natural oxidizing effects of aging. In a first test of whether DHEA or it derivatives have the ability to capture free radicals, an in-vitro oxygen radical assay was devised, The assay was run in quadruplicate to perfect the concentrations of controls as well as test the diluents (phosphate buffered saline (PBS) and DMSO) in which the DHEA and its derivatives were dissolved. The positive controls used were homocysteine and ascorbic acid (Vitamin C).

collagen content of skin = experiment: Collagen content of neonatal rat skin by hydroxyproline evaluation (Example 3); format: in vivo, neonatal male Sprague-Dawley rats; settings: 0.5% in carrier, twice daily, 30 days, five animals per group
Method: (§1) Chemical alterations in the skins of neonatal male Sprague-Dawley rats.
(§2) Collagen and elastin contents were measured on dry, defatted, hair-free skin samples. Collagen contents were assessed through hydroxyproline evaluations in hydrolyzed, 0.1N hot sodium hydroxide extracts. Elastin contents were measured by HPLC evaluation of the contents of thermolysin-produced peptides in digests of the hot sodium hydroxide residue. Controls were both shaven and unshaven, the shaven receiving only the carrier twice daily.
(§3) Elastin contents were increased by all the compounds (28% for DHEA, 30% for the 7 hydroxy and the 7 hydroxy-isoandrosterone). In these studies statistical analysis of variance was significant at an alpha level of 0.01. Similar to the histologic observations, these chemistries are reversible. Collagen and elastin contents returned to near normal levels after cessation of treatment for 30 days.

elastin content of skin = experiment: Elastin content of neonatal rat skin by HPLC of thermolysin-produced peptides (Example 3); format: in vivo, neonatal male Sprague-Dawley rats; settings: 0.5% in carrier, twice daily, 30 days, five animals per group
Method: as §1, §2, §3

thymocytes = experiment: Glucocorticoid-induced apoptosis of thymocytes, flow cytometry with propidium iodide (Example 4); format: cell-based, mouse C57BL/6; settings: 6 hours
Method: Effects of 3β,7α-dihydroxy-5-androstene-17-one (7α-hydroxy-DHEA) and of 3β,7α-dihydroxy-5α-androstane-17-one (7α-hydroxy-ISOA) on the cellular apoptosis induced by glucocorticoids.
The thymus of a mouse C57BL/6 age four weeks was removed. Culture of the thymocytes was carried out for 6 hours in a RPMI 1640 medium and in the presence or in the absence of the steroid tested. The apoptosis (fragmentation of the DNA) was measured by flow cytometry after marking with propidium iodide. The apoptotic phenomenon was controlled by electrophoresis of the DNA developed by ethidium bromide according to the traditional technique (observation of ladders of 200 pairs of bases).

human keratinocytes [2] = experiment: Viability of human keratinocytes in culture, MTT test (Example 5); format: cell-based
Method: Effects of 3β,7α-dihydroxy-5-androstene-17-one (7α-hydroxy-DHEA) on the viability of human keratinocytes in culture.
Human keratinocytes were obtained from surgical items and were cultivated in a monolayer until preconfluence. The 7α-hydroxy-DHEA was administered to these cultures at various concentrations in ethanolic solution (10%), each concentration being tested eight times. Controls were carried out with ethanol alone (10%). After twenty-four hours, the viability of the keratinocytes was measured by testing with MTT (3-(4,5-dimethylthiazol-2-yl)-2,5 diphenyl tetrazolium bromide) where the mitochondrial dehydrogenase succinate converts the MTT into blue crystals of formazan soluble in DMSO (Mosmann, J. Immunol. Methods 65: 55-63, 1983). The cellular viability is calculated according to the formula:
Any value greater than 100 indicates a product that encourages cellular viability.

human fibroblasts = experiment: Proliferation of human fibroblasts in culture, cell count (Example 6); format: cell-based; settings: 72 hours of contact, control 190,667 ± 6,766
Method: Effects of 3β,7α-dihydroxy-5-androstene-17-one (7α-hydroxy-DHEA) on the proliferation of human fibroblasts in culture.
The cultures of human fibroblasts (person) were seeded on twenty-four site plates at the rate of 50,000 cells per site in a standard culture medium (DMEM, gentamycine, amphotericine B, penicillin, L-glutamine, 10% SVF). The tests were carried out on four series of three sites. After twenty-four hours, the fibroblasts adhered to the support and three series were treated with 7α-hydroxy-DHEA at concentrations of 10^−6 M, 6. 10^−6 M and 10^−7 M. The fourth series only contained the vector (ethanol). The media were renewed daily, and at ninety-six hours (seventy-two hours of test contact with the 7α-hydroxy-DHEA), the fibroblasts were counted on a Malassez cell in the presence of blue trypan.

human keratinocytes [3] = experiment: Anti-radical effect on UVA-irradiated human keratinocyte suspension, lipid peroxide chemiluminescence (Example 7); format: cell-based; settings: UVA irradiated 30 minutes, 10^−6 M
Excerpt: The anti-radical effects of 3β,7α-dihydroxy-5-androstene-17-one (7α-hydroxy-DHEA) on a suspension of human keratinocytes.
Keratinocytes from a healthy donor were cultivated to the subconfluent stage in a specific medium (KGM) for the proliferation of keratinocytes. The suspensions obtained were split up, in triplicate, into four series, of which three were irradiated for thirty minutes with a lamp […] UVA so as to speed up the production of free radicals. Among the three irradiated series, one contained Vitamins C and E (0.7%) and was used as a protection reference, one contained 7α-hydroxy-DHEA at 10^−6 M and the last served as a control. Table D below reports on the measurement of the anti-radical effects.
The free radicals produced generate lipoid peroxides which are measured by chemiluminescence (Belghmi et al. J Biolum. Chemilum. 2: 113-119, 1982). The effectiveness of the 7α-hydroxy-DHEA was calculated on the basis of non-irradiated controls and the protection reference.

[4] = system: elastin content of the skin; experiment: Elastin content of rat skin after 30 days of topical treatment (FIG. 1); format: in vivo, Sprague-Dawley male rat; settings: topical 5% concentration of DHEA, similar time period, three animals
Excerpt: In FIG. 1, S CONTR represents the Shaven Control and US CONTR represents the Unshaven Control. FIG. 1 illustrates that the present invention has the advantageous qualities of enhancing the softness or elasticity of the skin by increasing the endogenous production of elastin in the skin. The present invention is also directed to a method of improving the texture of skin, specifically the physical appearance of the skin by improving the endogenous production of elastin. The method of the present invention employs any of a number of known administrative routes such as oral, IV, subcutaneous, transcutaneous, and topical administration. […]
It is preferable that the topical administration of the composition of the present invention occur repeatedly over a predetermined time period, preferably in the range of about one week to about one month. […] Testing illustrated that the endogenous elastin (measured by microgram (μg) Elastin per milligram (mg) Skin Fat Free Dry weight) of each of the rats to which the administration was applied doubled over that of a control sample and to a sample which was treated with a 5% concentration of DHEA over a similar time period. […] The data of FIG. 1 are significant at an alpha level less than 0.001 as determined by analysis of variance. […]

rat skin dermal layer = experiment: Histologic examination of H&E stained rat skin cross sections (Example 1); format: in vivo
Excerpt: 7 hydroxy DHEA and 7 hydroxy isoandrosterone treated rat skin.
Upon histologic examination of hematoxylin and eosin (H&E) stained rat skin cross sections, a striking physical change was noted. […] This finding was consistent and most pronounced when the parent compound (DHEA) was used on young, healthy rats. However, it also occurred in replicate experiments when the derivatives were used. […] The latter two findings support the toxicologic studies, done concomitantly, which found no significant toxicity when the compounds were used at 0.5% concentration in a suitable carrier applied twice daily (12 hour intervals) for 30 days. […] A subset of experimental animals within each treatment group were left untreated for 30 days. Upon examination, treated skin sections were indistinguishable from the untreated.

[5] = steroid 10^−5 M with Dexamethasone 10^−5 M
[6] = steroid 10^−6 M with Dexamethasone 10^−6 M

C[C@]12CC[C@H](O)CC1=C[C@@H](O)[C@@H]1[C@@H]2CC[C@]2(C)C(=O)CC[C@@H]12 [7α-hydroxy-DHEA, 3β,7α-dihydroxy-5-androstene-17-one]
reduction of light emission from luminol [1]: did not cause any reduction | collagen increase (collagen content of skin): 24% | elastin content increase (elastin content of skin): 30% | Apoptotic cells (thymocytes; [5]): 48.6% | Apoptotic cells (thymocytes; [6]): 58.8% | Viability of the keratinocytes (human keratinocytes [2]; 5 · 10^−5 M, 24 hours, control = 100): 111 ± 7% | Viability of the keratinocytes (human keratinocytes [2]; 5 · 10^−6 M, 24 hours, control = 100): 147 ± 9% | Viability of the keratinocytes (human keratinocytes [2]; 5 · 10^−7 M, 24 hours, control = 100): 139 ± 3% | cytotoxicity (human keratinocytes [2]; 10^−4 M to 10^−8 M): no cytotoxicity was observed | Viability of the keratinocytes (human keratinocytes [2]; 10^−4 M, 24 hours, control = 100): 124 ± 10% | Viability of the keratinocytes (human keratinocytes [2]; 10^−5 M, 24 hours, control = 100): 119 ± 7% | Viability of the keratinocytes (human keratinocytes [2]; 10^−6 M, 24 hours, control = 100): 154 ± 6% | Viability of the keratinocytes (human keratinocytes [2]; 10^−7 M, 24 hours, control = 100): 147 ± 5% | Viability of the keratinocytes (human keratinocytes [2]; 10^−8 M, 24 hours, control = 100): 127 ± 3% | effect on viability of human keratinocytes (human keratinocytes [2]; concentrations between 10^−4 M and 10^−8 M): significantly increases the viability | Number of Fibroblasts (human fibroblasts; 5 · 10^−6 M): 258,667 ± 3,351 | Number of Fibroblasts (human fibroblasts; 10^−6 M): 268,000 ± 27,154 | Number of Fibroblasts (human fibroblasts; 10^−7 M): 230,667 ± 8,511 | Effectiveness (human keratinocytes [3]; calculated from non-irradiated controls and protection reference): 90% | Chemiluminescence (human keratinocytes [3]; irradiated controls 427,750 ± 137,322): 44,164 ± 13,303

C[C@]12CC[C@H](O)C[C@@H]1C[C@@H](O)[C@@H]1[C@@H]2CC[C@]2(C)C(=O)CC[C@@H]12 [7α-hydroxy-ISOA, 3β,7α-dihydroxy-5α-androstane-17-one]
reduction of light emission from luminol [1]: 15% | collagen increase (collagen content of skin): 24% | elastin content increase (elastin content of skin): 30% | Apoptotic cells (thymocytes; [5]): 46.3% | Apoptotic cells (thymocytes; [6]): 72.0%

C[C@]12CC[C@H](O)CC1=CC[C@@H]1[C@@H]2CC[C@]2(C)C(=O)CC[C@@H]12 [DHEA, 3β-hydroxy-5-androstene-17-one, reference compound]
endogenous elastin (mean) [4]: 1.753 microgram (μg) Elastin per milligram (mg) Skin Fat Free Dry weight | thickness of the dermal layer of skin (rat skin dermal layer; 0.5% in carrier, twice daily, 30 days, vs shaven and unshaven untreated controls): thickened to nearly twice that of the untreated controls | reversibility of dermal thickening (rat skin dermal layer; animals left untreated for 30 days after treatment): completely reversible | reduction of light emission from luminol [1]: 20% | collagen decrease (collagen content of skin): 16% | elastin content increase (elastin content of skin): 28% | Apoptotic cells (thymocytes; [5]): 51.4% | Apoptotic cells (thymocytes; [6]): 39.0% | Viability of the keratinocytes (human keratinocytes [2]; other comparative tests, concentration not given): 100±5
